Experimental data as given in US10233209B2, “Inhibitors of the farnesoid x receptor and uses in medicine” (The United States of America, as represented by the …, priority 2013, dated 2019).
Entries after “also recorded” stand apart in the source; their conditions may differ.

Key:
[1] = molecular target: T1, FXR (Mus musculus, UniProt Q60641); test: PGL4-Shp-TK luciferase assay in primary hepatocytes; type: cell-based; conditions: primary hepatocytes from Fxr^+/+ mice; 100 μM TCA
T1 construct: Primary hepatocytes from Fxr^+/+ and Fxr^−/− mice were transfected with PGL4-Shp-TK firefly luciferase construct and the control plasmid phRL-SV40; endogenous in cells; host or cells: primary mouse hepatocytes (Fxr+/+; Fxr-/- as negative control)
T1 sequence (Q60641 1-488): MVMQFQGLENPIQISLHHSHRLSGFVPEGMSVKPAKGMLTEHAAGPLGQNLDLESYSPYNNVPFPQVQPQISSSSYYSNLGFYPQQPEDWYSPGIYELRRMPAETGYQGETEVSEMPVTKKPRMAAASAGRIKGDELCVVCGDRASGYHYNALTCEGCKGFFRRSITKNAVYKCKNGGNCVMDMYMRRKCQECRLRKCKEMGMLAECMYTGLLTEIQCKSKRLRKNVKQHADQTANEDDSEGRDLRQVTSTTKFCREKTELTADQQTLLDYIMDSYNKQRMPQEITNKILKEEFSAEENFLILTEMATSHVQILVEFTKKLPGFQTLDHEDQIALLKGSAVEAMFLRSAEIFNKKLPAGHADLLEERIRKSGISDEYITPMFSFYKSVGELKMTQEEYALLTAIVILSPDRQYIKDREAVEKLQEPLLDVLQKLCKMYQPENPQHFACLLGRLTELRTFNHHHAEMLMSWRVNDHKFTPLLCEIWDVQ
Source text: (§1) The PGL4-Shp-TK firefly luciferase construct and human Fxr expression plasmid were provided by Grace L. Guo of Rutgers University. The human Asbt expression plasmid was provided by Paul A. Dawson of Wake Forest University School of Medicine. The plasmids were transfected into cells using X-[…]™ HP DNA Transfection Reagent (Roche). The cells were lysed, and luciferase activities measured with a DUAL-LUCIFERASE™ assay kit (Promega). Firefly luciferase activity was normalized to Renilla luciferase activity.
Primary hepatocytes from Fxr^+/+ and Fxr^−/− mice were transfected with PGL4-Shp-TK firefly luciferase construct and the control plasmid phRL-SV40. After 24 h, the cells were treated with 100 μM taurocholic acid (TCA), TβMCA, or TβMCA with TCA. The cells were lysed, and luciferase activities measured as describe herein. The results are depicted in FIG. 1.

[2] = molecular target: T2, human FXR (Homo sapiens, UniProt Q96RI1); test: PGL4-Shp-TK luciferase assay in Caco-2 cells transfected with human FXR and human ASBT; type: cell-based; conditions: 100 μM TCA
T2 construct: expressed in transfected cells; host or cells: Caco-2
T2 sequence (Q96RI1 1-486): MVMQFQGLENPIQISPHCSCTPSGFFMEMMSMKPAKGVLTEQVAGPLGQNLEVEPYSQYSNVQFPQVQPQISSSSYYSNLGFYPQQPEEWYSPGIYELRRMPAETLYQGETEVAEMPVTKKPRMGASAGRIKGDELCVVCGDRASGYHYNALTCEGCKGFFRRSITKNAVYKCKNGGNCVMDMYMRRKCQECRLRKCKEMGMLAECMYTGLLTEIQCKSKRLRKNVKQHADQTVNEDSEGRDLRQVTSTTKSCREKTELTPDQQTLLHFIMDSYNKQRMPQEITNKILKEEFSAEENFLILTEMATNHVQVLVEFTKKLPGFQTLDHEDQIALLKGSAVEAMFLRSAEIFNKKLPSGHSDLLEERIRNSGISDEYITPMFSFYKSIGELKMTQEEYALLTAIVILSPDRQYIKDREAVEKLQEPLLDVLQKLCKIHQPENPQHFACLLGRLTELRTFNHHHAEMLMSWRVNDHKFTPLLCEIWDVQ
Source text: as §1
Caco-2 cells were transfected with PGL4-Shp-TK firefly luciferase construct, the control plasmid phRL-SV40, and human FXR and human ASBT expression plasmids. After 24 h, the cells were treated with 100 μM TCA, TβMCA, or TβMCA with […] 100 μM TCA. The cells were lysed, and luciferase activities measured as describe herein. The results are depicted in FIG. 2.

[3] = molecular target: T3, human FXR (Homo sapiens, UniProt Q96RI1); test: human FXR competition assay (GAL4-FXR chimeric receptor luciferase, HEK293T); type: cell-based; conditions: in the presence of GW4064
T3 construct: expressed in transfected cells; host or cells: HEK293T
T3 sequence (Q96RI1 262-486 limits assumed): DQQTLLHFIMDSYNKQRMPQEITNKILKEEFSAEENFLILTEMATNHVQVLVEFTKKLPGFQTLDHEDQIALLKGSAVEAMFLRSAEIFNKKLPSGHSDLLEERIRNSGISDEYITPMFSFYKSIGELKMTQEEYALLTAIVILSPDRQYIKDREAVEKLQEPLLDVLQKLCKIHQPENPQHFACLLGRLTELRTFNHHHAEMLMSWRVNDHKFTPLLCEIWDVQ
Protocol: Luciferase detection was conducted using the Dual Luciferase Reporter Assay kit (Promega Corp., Madison, Wis.) and a Tecan GeniosPro luminescent plate reader (Research Triangle Park, N.C.).
Luciferase detection was conducted using the Dual Luciferase Reporter Assay kit (Promega; Madison, Wis.) and a Tecan GeniosPro™ luminescent plate reader (Research Triangle Park, N.C.).

[4] = molecular target: T1, FXR; test: FXR signaling in the ileum (Shp, Fgf15 mRNA); type: in vivo; conditions: mice treated with antibiotic on HFD for three days; TCA and TβMCA 400 mg/kg each, oral
Source text: High-fat diet (HFD) (60% kcal consisting of fat) was purchased from Bioserv. […] Fxr^fl/fl and Fxr^ΔIE (Kim et al., J. Lipid Res. 48:2664-2672, 2007) mice were backcrossed with C57BL/6N mice for over 10 generations. For the antibiotic (the combination of bacitracin, neomycin, and streptomycin) study, male C57BL/6N mice from 6 weeks of age were fed a high-fat diet (“HFD) and administered 0.1% (w/v) of each compound (the combination of bacitracin, neomycin, and streptomycin) in the drinking water. […] For TβMCA in vivo, male C57BL/6N mice from 6 weeks of age were fed a HFD and treated with the antibiotics (0.1% of each compound of bacitracin, neomycin, and streptomycin combination) for 3 days. […] Cumulative food intake and TEEbal were measured for 1 week in vehicle and Gly-MCA-treated mice from 6 to 7 weeks of HFD. TEEbal was measured as previously described (Ravussin et al., Int. J. Obesity 37:399-403, 2013).
The mucosa of intestine was gently scraped and liver was taken and both were flash frozen in liquid nitrogen and stored at −80° C. until RNA was prepared. […] Measured mRNA levels were normalized to those of 18S ribosomal RNA and expressed as fold change relative to those of control group.

Compound: C[C@H](CCC(=O)NCCS(=O)(=O)O)[C@H]1CC[C@H]2[C@@H]3[C@@H](O)[C@@H](O)[C@@H]4C[C@H](O)CC[C@]4(C)[C@H]3CC[C@]12C [TβMCA, tauro-β-muricholic acid]
- FXR activation by TCA (luciferase activity) [1]: antagonizes farnesoid X receptor (FXR) activation; also recorded: antagonized FXR activation by TCA
- FXR activation by TCA (luciferase activity) [2]: antagonizes FXR activation; also recorded: antagonized FXR activation by TCA
- FXR activity induced by synthetic agonist GW4064 (luciferase, normalized to Renilla) [3]: inhibited FXR
- Shp and Fgf15 induction by the FXR agonist TCA in the ileum [4]: significantly blunted
